We go through 3 compounds from publication PMC7284125, “Identification of annotated bioactive molecules that impair motility of the blood fluke Schistosoma mansoni” (International Journal for Parasitology: Drugs and Drug …, 2020).

The structures appear in SMILES notation. Like-named read-outs stand apart in the source and are kept apart here.

Series [1] has as its system S. mansoni schistosomulae. Kind of series: Phenotypic primary screen assay on schistosomulae (phenotype; viability by methylene blue dye exclusion). Type of series: cell-based, Schistosoma mansoni. Particulars: for effect on viability of schistosomulae in words: 24 h incubation, five days; for Phenotype: three-day-old schistosomulae, 10 μM, 24 h, estimated 5 days post compound exposure. In short, it runs like this: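 Parasites lacking contraction/relaxation cycles and showing dark internal granulations counted as dead. Movement and body shape were compared with DMSO-treated controls under a stereo microscope at 24 h and at five days of exposure. Larvae came from infected snails shed under light for 2 h at 32 °C.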

For another series, the system named is S. mansoni adult worms. The experiment in a line: Motility assay on adult parasites (pixel displacement, relative to DMSO control). The class given is cell-based, Schistosoma mansoni. Particulars: 10 μM; for motility phenotype in words: adults, long-term after washout. In short, it runs like this: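 Unpaired adult worms from mice 6 weeks post-infection kept in OPTI-MEM with 5% dialyzed FBS and exposed to compounds at 1 and 10 μM for 24 h. Motility filmed 1 min at 10 frames/s, quantified by pixel displacement versus DMSO-treated worms; recovery followed up to five days after washout.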

Series [2] relates to S. mansoni schistosomulae. The experiment in a line: Phenotypic primary screen assay on schistosomulae (phenotype; viability by methylene blue dye exclusion). Type of series: cell-based. Particulars: Schistosoma mansoni; three-day-old schistosomulae, 10 μM, 24 h; calculated 5 days post compound exposure; read-out: Viability (%).
The next series deals with schistosomes. Also on record: method as in de Almeida et al., 2016. The following applies: 12.5–100 μM; ref de Almeida et al., 2016; cited from earlier work.
Series [3] deals with S. mansoni schistosomulae. Kind of series: Motility assay on schistosomulae (pixel displacement, relative to DMSO control). The class given is cell-based, Schistosoma mansoni. Particulars: for activity at 1 µM: Schistosoma mansoni, read-out: Fractional motility. The gist of the method:
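Motility was scored by pixel displacement from 1-min videos (10 frames/s) and compared with DMSO controls. Schistosomulae (200/well, Opti-MEM, 5% dialyzed FBS, no antibiotics) received compound at 1 or 10 μM for 24 h; selected hits were also followed at 1, 3, 6 and 12 h.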

Another series has as its target SmD2 (Schistosoma mansoni, UniProt G4LUJ1). The experiment in a line: cell-based. Type of series: cell-based.
On the set-up of series [4]: method as in Rybczynska et al., 2006. The following applies: 1 mg/kg, normotensive rats; ref Rybczynska et al., 2006; cited from earlier work.
The next series has as its system human CaSR. More on the design: method as in Nemeth et al., 2001. The following applies: ref Nemeth et al., 2001; cited from earlier work.
In another series the test system is schistosomulae. Also on record: method as in Panic et al., 2015b. Particulars: 72 h incubation at 10 μM; ref Panic et al., 2015b; cited from earlier work.
[5] abbreviates: secondary screen, D1, Female adult worms.
[6] abbreviates: secondary screen, D1, Male adult worms.
[7] abbreviates: secondary screen, D5, Female adult worms.
The mark [8] stands for this setting: secondary screen, D5, Male adult worms.
Setting [9] is: 120 h, schistosomulae, secondary screen, 24h exposure, read at D5, 1 µM.
Where [10] appears, read: schistosomulae, secondary screen, 24h exposure, read at D1, 1 µM.
The mark [11] stands for this setting: schistosomulae, 1h exposure, read at D1, 10 µM.
The mark [12] stands for this setting: schistosomulae, 1h exposure, read at D5, 10 µM.
The mark [13] stands for this setting: schistosomulae, 3h exposure, read at D1, 10 µM.
The mark [14] stands for this setting: schistosomulae, 3h exposure, read at D5, 10 µM.
[15] abbreviates: schistosomulae, 6h exposure, read at D1, 10 µM.
[16] abbreviates: schistosomulae, secondary screen, 24h exposure, read at D1, 10 µM.
[17] abbreviates: schistosomulae, secondary screen, 24h exposure, read at D5, 10 µM.

SmD2, sequence (G4LUJ1 entry or part of it): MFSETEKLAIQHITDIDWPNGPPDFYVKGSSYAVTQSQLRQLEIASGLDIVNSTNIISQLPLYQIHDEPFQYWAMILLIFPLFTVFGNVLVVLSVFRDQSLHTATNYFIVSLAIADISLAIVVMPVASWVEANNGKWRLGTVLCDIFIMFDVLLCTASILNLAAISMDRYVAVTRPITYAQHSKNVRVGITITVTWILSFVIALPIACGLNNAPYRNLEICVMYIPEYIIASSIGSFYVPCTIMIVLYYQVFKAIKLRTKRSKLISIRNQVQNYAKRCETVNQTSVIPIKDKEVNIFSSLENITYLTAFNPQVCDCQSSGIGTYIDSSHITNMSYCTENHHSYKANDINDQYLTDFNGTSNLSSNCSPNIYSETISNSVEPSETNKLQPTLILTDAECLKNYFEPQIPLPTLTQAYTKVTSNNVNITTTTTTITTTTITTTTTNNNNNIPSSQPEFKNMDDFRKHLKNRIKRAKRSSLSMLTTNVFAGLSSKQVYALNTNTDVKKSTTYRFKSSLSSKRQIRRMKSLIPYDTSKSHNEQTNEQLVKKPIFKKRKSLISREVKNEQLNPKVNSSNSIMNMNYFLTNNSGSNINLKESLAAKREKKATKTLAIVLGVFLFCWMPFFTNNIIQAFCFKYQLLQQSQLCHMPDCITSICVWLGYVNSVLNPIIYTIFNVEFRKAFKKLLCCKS

The viability is a per cent measure of how many cells are alive, often set against a control. As usually defined, the mortality is the share of the test organisms that died. Take `C=C1C(=O)O[C@H]2[C@H]1CC/C(C)=C/CC[C@@]1(C)O[C@@H]21` [(-)-Parthenolide]: the “effect on viability of schistosomulae in words” value (shortened to “effect on viability”) in [1] is recorded as “total schistosomulicid action”. For the same compound, the Phenotype entry in series [1] was “big, dark, granulated”. Moreover, the hypomotility in the series on S. mansoni adult worms (adult male and female parasites, long-term) came out at 49.5%. The “motility phenotype in words” value in the series with S. mansoni adult worms was “severely paralyzed adults”. In addition, the Fractional motility with S. mansoni adult worms (setting [5]) is -0.36; in the series with S. mansoni adult worms (setting [6]), 0.14; in the series with S. mansoni adult worms (setting [7]), -0.65; in the series with S. mansoni adult worms (setting [8]) it was -0.34; in series [3] (setting [11]), -0.61; in [3] (setting [12]), -0.72. Besides, the Fractional motility in series [3] (setting [13]) is listed as -0.27; in series [3] (setting [14]) it was -0.10; in [3] (setting [15]), 3.66; in [3] (schistosomulae, 6h exposure, read at D5, 10 µM), -0.86; in [3] (setting [16]) it was 0.67; in series [3] (setting [17]) it was -0.99. The viability at 10 µM in [2] is 0%. The mortality in the series on schistosomes is 100%. In addition, the activity at 1 µM is -16% in series [3] (setting [9]) and -3% in [3] (setting [10]).
In general, inhibition refers to how much of the control response was suppressed. In general, IC50 refers to the concentration needed to halve the response being measured. Consider `CC(C)(Cc1ccc2ccccc2c1)NC[C@@H](O)COc1cccc(Cl)c1C#N` [NPS-2143], for which, on SmD2 (HEK293, SmD2 cells, 10 μM compound, 50 μM EPN, read-out: inhibition of EPN-evoked luminescence), the inhibition at 10 µM was 91.1%. Further, the IC50 is 2.53 ± 0.28 nM at SmD2 (inhibition of EPN-evoked luminescence, concentration-response assay, read-out: IC50) and 43 nM with human CaSR. For the same compound, in [1], the “effect on viability” value is “no effect on viability”. In series [1], the Phenotype entry was “big, granulated”. The Fractional motility with S. mansoni adult worms (adult female worms, D1) is reported as -0.33; with S. mansoni adult worms (adult female worms, D5), -0.92; in the series with S. mansoni adult worms (adult male worms, D1), -0.52; in the series on S. mansoni adult worms (adult male worms, D5) it was -0.30; with S. mansoni adult worms (setting [5]), -0.33; in the series with S. mansoni adult worms (setting [6]), -0.52. Further, the Fractional motility with S. mansoni adult worms (setting [7]) is reported as -0.92; with S. mansoni adult worms (setting [8]), -0.30; in series [3] (1h, D1, 10 µM), -0.86; in series [3] (1h, D5, 10 µM), -0.00164; in series [3] (3h, D1, 10 µM), 0.27; in series [3] (3h, D5, 10 µM) it was -0.84. For the same compound, the Fractional motility in series [3] (6h, D1, 10 µM) is 14.69; in series [3] (6h, D5, 10 µM), -0.27; in series [3] (NPS-2143 and analogs, 24h, D1, 1 µM), -0.50; in series [3] (NPS-2143 and analogs, 24h, D1, 10 µM), 49.26; in series [3] (NPS-2143 and analogs, 24h, D5, 1 µM) it was -0.09; in series [3] (NPS-2143 and analogs, 24h, D5, 10 µM) it was -0.99. The Fractional motility in series [3] (Selleckchem customized library secondary screen, 24h, D1, 10 µM) was 49.26; in series [3] (Selleckchem customized library secondary screen, 24h, D5, 10 µM), -0.99. Also, the “effect on blood pressure” value in series [4] is recorded as “significantly increases blood pressure”. In addition, in [2], the viability at 10 µM is 82%. Moreover, the activity at 1 µM was -9% in series [3] (120 h, Selleckchem customized library secondary screen, 24h, D5, 1 µM) and -50% in series [3] (Selleckchem customized library secondary screen, 24h, D1, 1 µM). The “hypermotility relative to control” value in [3] (schistosomulae, after 24 h incubation) is given as “up to 50 fold”. For the same compound, in series [3] (schistosomulae, long-term, five days after compound washout), the “motility phenotype in words” value is “complete paralysis”.
As to `COC(=O)C1=C(C)NC(C)=C(C(=O)OCCN2CCN(C(c3ccccc3)c3ccccc3)CC2)C1c1cccc([N+](=O)[O-])c1` (centres unmarked) [Manidipine], in series [1], the “effect on viability” value is “no larval mortality was observed”. Besides, in series [1], the Phenotype result is “abnormal morphology, big, granulated”. The “motility phenotype in words” value in the series with S. mansoni adult worms is “strongly impaired movement”. Moreover, the Fractional motility in the series on S. mansoni adult worms (setting [5]) was 0.19; in the series on S. mansoni adult worms (setting [6]), -0.20; in the series on S. mansoni adult worms (setting [7]) it was -0.91; in the series on S. mansoni adult worms (setting [8]), -0.98; in series [3] (setting [11]), -0.94; in series [3] (setting [12]) it was -0.59. Moreover, the Fractional motility is on record as -0.33 in series [3] (setting [13]); -0.75 in series [3] (setting [14]); -0.74 in series [3] (setting [15]); -0.78 in series [3] (setting [16]); -0.85 in [3] (setting [17]). Moreover, the “activity on schistosomulae in words” value in the series with schistosomulae is recorded as “schistosomulicidal”. Also, the viability at 10 µM in [2] was 97%. Besides, the activity at 1 µM is -59% in series [3] (setting [9]) and -79% in [3] (setting [10]). In series [3] (schistosomulae, all tested concentrations until five days after drug washout), this compound displayed a hypomotility of at least 59%. Also, the “motility in extended assay with reduced incubation times, in words” value in series [3] (three-day old schistosomulae, incubation 1 h, 3 h, 6 h) was “significant and sustained hypomotility”.
